Paper PMC11945486, “TAS1R2/TAS1R3 Single-Nucleotide Polymorphisms Affect Sweet Taste Receptor Activation by Sweeteners: The SWEET Project” (Nutrients, 2025)
Blank lines part the entries; values can stand above or below the molecule they belong to. No end group written: not given here.

Biological target: T1, human TAS1R2-A574T/TAS1R3-WT (Homo sapiens, UniProt Q7RTX0+Q8TE23, A574T)
T1 construct: expressed in transfected cells; host or cells: HEK293T-Gα16gust44
T1 sequence (Q8TE23 20-839 A574T): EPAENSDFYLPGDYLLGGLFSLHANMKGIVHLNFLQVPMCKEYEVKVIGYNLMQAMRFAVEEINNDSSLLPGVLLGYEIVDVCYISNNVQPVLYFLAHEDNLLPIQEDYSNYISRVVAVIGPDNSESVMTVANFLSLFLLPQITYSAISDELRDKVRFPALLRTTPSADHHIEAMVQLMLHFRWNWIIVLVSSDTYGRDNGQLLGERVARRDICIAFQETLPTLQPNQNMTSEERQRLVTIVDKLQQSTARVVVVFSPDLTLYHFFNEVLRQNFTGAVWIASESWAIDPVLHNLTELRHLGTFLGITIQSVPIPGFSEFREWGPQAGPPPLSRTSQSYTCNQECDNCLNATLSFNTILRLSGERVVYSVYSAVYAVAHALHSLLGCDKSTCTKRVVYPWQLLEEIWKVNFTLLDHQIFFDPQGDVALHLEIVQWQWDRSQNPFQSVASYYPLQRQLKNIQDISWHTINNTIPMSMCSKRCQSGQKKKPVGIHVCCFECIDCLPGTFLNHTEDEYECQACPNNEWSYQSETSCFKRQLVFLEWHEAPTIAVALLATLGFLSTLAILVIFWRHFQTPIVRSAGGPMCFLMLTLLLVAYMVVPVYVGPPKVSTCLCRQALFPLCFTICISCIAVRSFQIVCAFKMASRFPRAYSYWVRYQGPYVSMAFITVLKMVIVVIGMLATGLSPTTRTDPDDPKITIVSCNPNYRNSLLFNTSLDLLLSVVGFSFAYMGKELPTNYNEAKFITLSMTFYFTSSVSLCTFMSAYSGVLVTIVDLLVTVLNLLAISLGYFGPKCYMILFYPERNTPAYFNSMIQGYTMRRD
T1 sequence (Q7RTX0 21-852): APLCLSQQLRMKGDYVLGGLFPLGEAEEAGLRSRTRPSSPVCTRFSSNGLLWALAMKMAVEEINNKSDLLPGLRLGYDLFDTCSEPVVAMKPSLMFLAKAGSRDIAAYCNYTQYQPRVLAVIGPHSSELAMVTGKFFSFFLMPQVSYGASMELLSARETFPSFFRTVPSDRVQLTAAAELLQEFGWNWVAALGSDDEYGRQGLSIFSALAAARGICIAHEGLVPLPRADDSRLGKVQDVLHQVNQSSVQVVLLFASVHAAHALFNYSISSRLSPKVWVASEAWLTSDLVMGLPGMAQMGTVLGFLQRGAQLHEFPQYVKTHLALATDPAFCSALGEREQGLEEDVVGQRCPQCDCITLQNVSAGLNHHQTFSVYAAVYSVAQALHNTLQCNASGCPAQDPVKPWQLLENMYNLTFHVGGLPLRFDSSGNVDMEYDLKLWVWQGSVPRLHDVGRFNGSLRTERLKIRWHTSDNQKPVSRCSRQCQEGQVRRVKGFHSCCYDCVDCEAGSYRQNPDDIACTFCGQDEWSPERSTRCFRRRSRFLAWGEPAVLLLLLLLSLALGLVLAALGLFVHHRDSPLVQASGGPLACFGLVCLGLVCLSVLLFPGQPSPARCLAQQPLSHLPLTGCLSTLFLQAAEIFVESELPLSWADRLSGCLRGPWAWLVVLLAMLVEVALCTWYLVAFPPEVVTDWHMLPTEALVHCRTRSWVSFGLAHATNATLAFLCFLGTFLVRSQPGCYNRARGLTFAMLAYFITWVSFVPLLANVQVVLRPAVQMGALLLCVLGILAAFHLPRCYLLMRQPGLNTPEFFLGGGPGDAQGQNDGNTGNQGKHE
Experiment: Calcium mobilisation assay, TAS1R2 variant A574T with TAS1R3-WT
Assay type: cell-based
Details: for Max ΔF/F0: maximal signal amplitude
Description: The coding sequences for TAS1R2 and TAS1R3 were commercially synthesised, and the human codon was optimised for expression in human cells. The coding sequences of human TAS1R2 and TAS1R3 were subcloned and inserted into the mammalian expression vectors pcDNA6/myc-HisA and pcDNA4/myc-HisA (Invitrogen; Thermo Fisher Scientific; Illkirch, France) between the EcoRI and NotI restriction sites, generating the plasmids pcDNA6-TAS1R2 and pcDNA4-TAS1R3, respectively. To increase protein expression in mammalian cells, an upstream start codon was used, which was a sequence called MAX, corresponding to the QBI SP163 element also described in pcDNA4-HisMax (Invitrogen; Thermo Fisher Scientific; Illkirch, France). To measure the expression level of the receptor by immunohistochemistry, we used the FLAG sequence ([…]) in the C-terminal position, which encodes the FLAG tag epitope. SNP variants of TAS1R2 and TAS1R3 were constructed based on […], respectively, using site-directed mutagenesis (Genewiz; Leipzig, Germany).
The HEK293T cells were kindly provided by Jay P. Slack (Givaudan Flavors Corporation; Cincinnati, OH, USA). HEK293T cells stably transfected with Gα16gust44 [43, 67] were seeded in poly-D-lysine-coated clear-bottom black 96-well plates (0.35 × 10^5 cells/well) in high-glucose DMEM supplemented with 2 mM GlutaMAX, 10% dialysed foetal bovine serum with penicillin/streptomycin and G418 (400 μg/mL) at 37 °C and 6.3% CO2 in a humidified atmosphere as previously reported. […] As a negative control, HEK293T cells were mock-transfected with the empty expression vector. After a further 24 h of incubation, the HEK293T cells were washed with C1 buffer (130 mM NaCl, 5 mM KCl, 10 mM HEPES pH 7.4 and 2 mM CaCl2). The 96-well plates containing the cells were then stimulated with sweet-tasting compounds. […] Different concentration ranges were tested depending on the sweet compound injected. The Ca^2+ changes were expressed as fractional changes in fluorescent light intensity: ΔF/F = (F − F0)/F0, where F was the fluorescent light intensity at each point, and F0 was the value of emitted fluorescent light prior to stimulus application. To calculate dose–response relationships, the changes in fluorescence upon stimulus application were averaged, mock-subtracted and baseline-corrected. The dose–response data obtained were adjusted using a 4-parameter logistic equation. The half-maximal effective concentrations (EC50 values) and maximal signal amplitudes were calculated using SigmaPlot software (version 15.0) (Systat Software; San Jose, CA, USA).
For in vitro calcium mobilisation assay performed on hTAS1R2-SNPs, hTAS1R3-SNPs and mTAS1R3-I60T, 6 to 7 concentrations were tested for each sweet compound, plus buffer alone. All concentration–receptor combinations were measured in duplicate, and each experiment was repeated at least 4 times (8 wells/concentration). Results were expressed for each concentration as ΔF/F mean ± SEM and represented as dose–response curves.

EC50: 658 ± 65 µM | R1 = Variant EC50/WT EC50: 0.9 | Max ΔF/F0: 0.34 ± 0.02
Molecule: CC1=CC(=O)NS(=O)(=O)O1 [Acesulfame K, acesulfame K]

Molecule: O=S(=O)(O)NC1CCCCC1 [Cyclamate, cyclamate]
EC50: 1780 ± 49 µM

Molecule: C[C@H](CC[C@@H](O[C@@H]1O[C@H](CO[C@@H]2O[C@H](CO)[C@@H](O)[C@H](O)[C@H]2O)[C@@H](O)[C@H](O)[C@H]1O[C@@H]1O[C@H](CO)[C@@H](O)[C@H](O)[C@H]1O)C(C)(C)O)[C@H]1CC[C@@]2(C)[C@@H]3CC=C4[C@@H](CC[C@H](O[C@@H]5O[C@H](CO[C@@H]6O[C@H](CO)[C@@H](O)[C@H](O)[C@H]6O)[C@@H](O)[C@H](O)[C@H]5O)C4(C)C)[C@]3(C)[C@H](O)C[C@]12C [Mogroside V, mogroside V]
EC50: 16.7 ± 3.1 µM | R1 = Variant EC50/WT EC50: 1.0 | Max ΔF/F0: 1.25 ± 0.08

EC50: 73.4 ± 8.4 µM | R1 = Variant EC50/WT EC50: 1.0 | Max ΔF/F0: 0.81 ± 0.03
Molecule: COc1ccc(CCC(=O)c2c(O)cc(O[C@@H]3O[C@H](CO)[C@@H](O)[C@H](O)[C@H]3O[C@@H]3O[C@@H](C)[C@H](O)[C@@H](O)[C@H]3O)cc2O)cc1O [NHDC, neohesperidin dihydrochalcone]

EC50: 0.73 ± 0.03 µM | R1 = Variant EC50/WT EC50: 0.9 | Max ΔF/F0: 0.60 ± 0.01
Molecule: COC(=O)[C@H](Cc1ccccc1)NC(=O)[C@H](CC(=O)O)NCCC(C)(C)C [Neotame]

EC50: 19.2 ± 0.9 µM | R1 = Variant EC50/WT EC50: 1.1 | Max ΔF/F0: 1.39 ± 0.02
Molecule: C=C(C)[C@@H]1CC=C(/C=N/O)CC1 [Perillartine, perillartine]

EC50: 16.3 ± 0.5 µM | R1 = Variant EC50/WT EC50: 1.0 | Max ΔF/F0: 1.08 ± 0.01
Molecule: C=C1C[C@@]23CC[C@H]4[C@@](C)(CCC[C@@]4(C)C(=O)O[C@@H]4O[C@H](CO)[C@@H](O)[C@H](O[C@@H]5O[C@H](CO)[C@@H](O)[C@H](O)[C@H]5O)[C@H]4O[C@@H]4O[C@H](CO)[C@@H](O)[C@H](O)[C@H]4O)[C@@H]2CC[C@]1(O[C@@H]1O[C@H](CO)[C@@H](O)[C@H](O[C@@H]2O[C@H](CO)[C@@H](O)[C@H](O)[C@H]2O)[C@H]1O[C@@H]1O[C@H](CO)[C@@H](O)[C@H](O)[C@H]1O)C3 [Rebaudioside M, rebaudioside M]

EC50: 81 ± 2 µM | R1 = Variant EC50/WT EC50: 0.9 | Max ΔF/F0: 0.63 ± 0.01
Molecule: OC[C@H]1O[C@H](O[C@]2(CCl)O[C@H](CCl)[C@@H](O)[C@@H]2O)[C@H](O)[C@@H](O)[C@H]1Cl [Sucralose]

R1 = Variant EC50/WT EC50: 1.2 | Max ΔF/F0: 1.14 ± 0.01
Molecule: brazzein (QDKCKKVYENYPVSKCQLANQCNYDCKLDKHARSGECFYDEKRNLQCICDYCEY; ends and bridges not checked; cysteine pairing not given here; UniProt P56552 1-54, looked up) [sweet-tasting protein obtained by recombinant production using the yeast Pichia pastoris]

R1 = Variant EC50/WT EC50: 1.9 | Max ΔF/F0: 1.37 ± 0.02
Molecule: thaumatin

EC50: 14.1 ± 0.3 µM
B1: thaumatin (protein)
chain: ATFEIVNRCSYTVWAAASKGDAALDAGGRQLNSGESWTINVEPGTKGGKIWARTDCYFDDSGSGICKTGDCGGLLRCKRFGRPPTTLAEFSLNQYGKDYIDISNIKGFNVPMDFSPTTRGCRGVRCAADIVGQCPAKLKAPGGGCNDACTVFQTSEYCCTTGKCGPTEYSRFFKRLCPDAFSYVLDKPTTVTCPGSSNYRVTFCPTA
modifications: Eight disulfides
notes: sweet-tasting plant protein, E957
